# Like-named read-outs stand apart in the source and are kept apart here.
# How the values were obtained:
# [1] = T1-values for the 13C atom in human bloodplasma; type: physicochemical; settings: 37° C., 7 T
# Description: (§1) T1-values for the ^13C atom in 1-^13C-2,2,2′,2′,2″,2″-hexadeuterotris(hydroxymethyl)nitromethane
# (§2) T1-values for the ^13C atom in 2-^13C-2,2-bis(trideuteromethyl)-1,1,3,3-tetradeuteropropane-1,3-diol
# [2] = T1-values for the 13C atom (water solution and solid); type: physicochemical; settings: 7 T
# Description: as §1, §2
# [3] = 13C-signal enhancement after low-field pumping and dissolution (solution experiments); type: physicochemical; settings: 20 mg solid in 3 ml deuterium oxide, 40° C., holding field 0.4 T
# Description: A sample of solid 1-^13C-2,2,2′,2′,2″,2″-hexadeuterotris(hydroxymethyl)nitromethane was subjected to a magnetic field of 6.56 T at a temperature of 2.5 K for 10 minutes. The sample was then removed from the centre of the magnet to the stray field (7 mT) for a duration 1 s and then returned to the magnet. After another 10 minutes the process was repeated one more.
# (§3) A sample of solid 1-^13C-2,2,2′,2′,2″,2″-hexadeuterotris(hydroxymethyl)nitromethane (20 mg) was subjected to the above-mentioned pumping procedure (see Examples 5-7) and then in less than 1 second moved to a holding field of 0.4 T where also a sample of deuterium oxide (3 ml) at a temperature of 40° C., stirred by nitrogen bubbling, was kept. […] The sample was inserted into the spectrometer and a ^13C-spectrum was recorded. […]
# as §3, with “2-^13C-2,2-bis(trideuteromethyl)-1,1,3,3-tetradeuteropropane-1,3-diol” for “1-^13C-2,2,2′,2′,2″,2″-hexadeuterotris(hydroxymethyl)nitromethane”
# [4] = T1 in the blood after injection of the dissolved polarised agent; type: in vivo; settings: 300 mg dissolved in 10 ml Ringers Solution, 37° C., pH 7.4, injected
# Description: 300 mg of sterile Na2^13CO3 or NaH^13CO3 is placed inside a 10 ml plastic injection syringe. The gas inside the syringe is enriched with >20% […]. The syringe is placed inside a magnet (1-20 T) at a temperature of about 4 K (0.001-5 K) until thermodynamic equilibrium is reached.
# The syringe is removed and transported to the subject located in the MRI magnet. 10 ml of sterile Ringers Solution (at 37° C., pH 7.4) is aspirated and injected at a rate of 10 ml/sec immediately after the high T1 agent has dissolved. 13C MRI is performed using a fast pulse sequence. T1 in the blood is about 20 s and the distribution of the agent is followed on the MR imager.
# [5] = solid
# Description: Where Mmax is the magnetisation of the sample after complete relaxation at the final field.
# This procedure can be repeated after the protons have repolarised again, successively building up the carbon polarisation until the spin-temperature of the two nuclei become the same. […] Generally fluorine relaxes even faster than protons and it would be possible to include a fluorine atom in the contrast agent molecule as an internal relaxation agent.
# It is also possible to use quadrupolar nuclei for this process. […] The magnetic storage field must be large enough to avoid overlap of the resonances of the wanted nucleus and any rapidly relaxing quadrupolar nuclei. It is known that this phenomenon causes the rapid relaxation of frozen ^129Xe in a low field, when spin diffusion to the quadrupolar ^131Xe becomes efficient.
T1 in the blood [4],SMILES,T1-value for the 13C atom [1] [s],"T1-value for the 13C atom ([2]; H2O, air saturated, 37° C.) [s]","T1-value for the 13C atom ([2]; H2O, degassed, 37° C.) [s]","T1-value for the 13C atom ([2]; Solid, 2.5 K) [s]","T1-value for the 13C atom ([2]; Solid, 20° C.) [s]",Time until a clear solution was obtained [3],further results
,"[2H]C([2H])(O)[13C]([N+](=O)[O-])(C([2H])([2H])O)C([2H])([2H])O [1-^13C-2,2,2′,2′,2″,2″-hexadeuterotris(hydroxymethyl)nitromethane]",60,95,102,198000,1320,less than 1 S,"T1-value for the 13C atom ([2]; Solid, −30° C.): 2820 s"
,"[2H]C([2H])([2H])[13C](C([2H])([2H])[2H])(C([2H])([2H])O)C([2H])([2H])O [2-^13C-2,2-bis(trideuteromethyl)-1,1,3,3-tetradeuteropropane-1,3-diol]",96,133,157,162000,237,less than 1 S,
about 20 s,O=[13C]([O-])[O-].[Na+].[Na+] [Na2^13CO3],,,,,,,
about 20 s,"O=[13C]([O-])O.[Na+] [NaH^13CO3, sodium bicarbonate—^13C]",,,,,,,
,CC(=O)[O-].[Na+] [sodium acetate],,,,,,,"T1,0 (time constant for relaxation at no external magnetic field) ([5]; carbonyl carbon): about 5 seconds; T1 of the carbonyl carbon ([5]; at 7 T): 1700 s; T1 of the carbonyl carbon ([5]; room temperature): 1700 s; T1 of the protons ([5]; room temperature): 31 s; T1 of the sodium ions ([5]; room temperature): 1.7 s"

# — patent US6466814B1, “Method of magnetic resonance investigation” (Amersham Health AS, priority 1998, dated 2002)
